Reference: US20140051577A1, “SUBSTITUTED 5-(BICYCLO[4.1.0]HEPT-3-EN-2-YL)PENTA-2,4-DIENES AND 5-(BICYCLO[4.1.0]HEPT-3-EN-2-YL)PENT-2-ENE-4-INES AS ACTIVE AGENTS AGAINST ABIOTIC STRESSES IN PLANTS” (priority 2011, published 2014)

System: Brassica napus
Test: Drought stress test on crop plants in greenhouse, spray application, efficacy vs untreated stressed control
Type: in vivo
Conditions: dosage 25 g/ha, mean of three results
Procedure: Seeds of monocotyledonous and dicotyledonous crop plants were laid out in sandy loam in wood-fiber pots, covered with soil and cultivated in a greenhouse under good growth conditions. The test plants were treated at the early leaf stage (BBCH10-BBCH13). To ensure uniform water supply before commencement of stress, the potted plants were supplied with the maximum amount of water immediately beforehand by dam irrigation and, after application, transferred in plastic inserts in order to prevent subsequent, excessively rapid drying. The inventive compounds, formulated in the form of wettable powders (WP), wettable granules (WG), suspension concentrates (SC) or emulsion concentrates (EC), were sprayed onto the green parts of the plants as an aqueous suspension at an equivalent water application rate of 600 l/ha with addition of 0.2% wetting agent (agrotin). Substance application is followed immediately by stress treatment of the plants (cold or drought stress). […]
After the recovery phase had ended, the intensities of damage were rated in visual comparison to untreated, unstressed controls of the same age (in the case of drought stress) or the same growth stage (in the case of cold stress). The intensity of damage was first assessed as a percentage (100%=plants have died, 0%=like control plants). […]

CCOC(=O)/C=C(/C)C#CC1(O)C(C)=CC(=O)C2CC21C (centres unmarked) [I.1-394, Ethyl (2Z)-5-(2-hydroxy-1,3-dimethyl-5-oxobicyclo[4.1.0]hept-3-en-2-yl)-3-methylpent-2-en-4-ynoate]
EF (BRSNS): efficacy, percentage reduction in the intensity of damage (second table headed TABLE A-1) (BRSNS as printed): >5% | EF (BRSNS): efficacy, percentage reduction in the intensity of damage (Brassica napus): >5%
